According to US20230085307A1, “PYRIDAZINONE COMPOUND AND HERBICIDE” (NISSAN CHEMICAL CORPORATION, priority 2019, published 2023):

Legend:
velvetleaf [1] = assay: Test Example 5: herbicidal effect by foliage application, plastic box (Table 20, symbol M); format: in vivo, velvetleaf (Abutilon theophrasti); settings: foliage application, 320 g/ha, three weeks after application
Summary of the method: (§1)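 Sow seeds spot-wise in sterilized diluvial soil; cover with ~1.5 cm soil. Grow 14 days in greenhouse, 25° C. to 30° C. Spray foliage with emulsion diluted to predetermined amount. Rate effect after 3 weeks.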

blackgrass [2] = assay: Test Example 5: herbicidal effect by foliage application, plastic box (Table 20, symbol J); format: in vivo, blackgrass (Alopecurus myosuroides); settings: foliage application, 320 g/ha, three weeks after application
Summary of the method: as §1

late watergrass = assay: Test Example 1: herbicidal activity, application before weed generation under submerged conditions (Table 16, symbol A); format: in vivo, late watergrass (Echinochloa oryzicola); settings: 320 g/ha applied herbicide
Summary of the method: (§2)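 Emulsion formulation, water-diluted to set dose, was put onto the flooded surface (4 cm depth, alluvial soil) the same day weeds were sown and 2.5-leaf rice transplanted. After 3 weeks at 25-30 °C under glass, each species was rated 0 (≤5% kill) to 5 (≥90% kill).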

southern crabgrass [3] = assay: Test Example 4: herbicidal effect by soil treatment (Table 19, symbol F); format: in vivo, southern crabgrass (Digitaria ciliaris); settings: amount of applied herbicide 320 g/ha
Summary of the method: (§3)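 Soil-surface application: an emulsion agent diluted with water to the predetermined dose is sprayed uniformly over seeds lying under roughly 1.5 cm of sterilized diluvial soil. Boxes stay in a greenhouse at 25° C. to 30° C. Three weeks later, each species is graded on previously defined criteria.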

wild oat [4] = assay: Test Example 5: herbicidal effect by foliage application, plastic box (Table 20, symbol I); format: in vivo, wild oat (Avena fatua); settings: foliage application, 320 g/ha, three weeks after application
Summary of the method: as §1

redroot pigweed [5] = assay: Test Example 5: herbicidal effect by foliage application, plastic box (Table 20, symbol N); format: in vivo, redroot pigweed (Amaranthus retroflexus); settings: foliage application, 320 g/ha, three weeks after application
Summary of the method: as §1

persian speedwell [6] = assay: Test Example 4: herbicidal effect by soil treatment (Table 19, symbol R); format: in vivo, Persian speedwell (Veronica persica); settings: amount of applied herbicide 320 g/ha
Summary of the method: as §3

green foxtail [7] = assay: Test Example 5: herbicidal effect by foliage application, plastic box (Table 20, symbol G); format: in vivo, green foxtail (Setaria viridis); settings: foliage application, 320 g/ha, three weeks after application
Summary of the method: as §1

oval-leafed pondweed = assay: Test Example 1: herbicidal activity, application before weed generation under submerged conditions (Table 16, symbol C); format: in vivo, oval-leafed pondweed (Monochoria vaginalis); settings: 320 g/ha applied herbicide
Summary of the method: as §2

lambsquarters [8] = assay: Test Example 4: herbicidal effect by soil treatment (Table 19, symbol O); format: in vivo, lambsquarters (Chenopodium album); settings: amount of applied herbicide 320 g/ha
Summary of the method: as §3

chickweed [9] = assay: Test Example 5: herbicidal effect by foliage application, plastic box (Table 20, symbol P); format: in vivo, common chickweed (Stellaria media); settings: foliage application, 320 g/ha, three weeks after application
Summary of the method: as §1

windgrass [10] = assay: Test Example 4: herbicidal effect by soil treatment (Table 19, symbol L); format: in vivo, windgrass (Apera spica-venti); settings: amount of applied herbicide 320 g/ha
Summary of the method: as §3

persian speedwell [11] = assay: Test Example 5: herbicidal effect by foliage application, plastic box (Table 20, symbol R); format: in vivo, Persian speedwell (Veronica persica); settings: foliage application, 320 g/ha, three weeks after application
Summary of the method: as §1

southern crabgrass [12] = assay: Test Example 5: herbicidal effect by foliage application, plastic box (Table 20, symbol F); format: in vivo, southern crabgrass (Digitaria ciliaris); settings: foliage application, 320 g/ha, three weeks after application
Summary of the method: as §1

rice flat sedge = assay: Test Example 3: herbicidal effect by foliage application, Wagner pot (Table 18, symbol E); format: in vivo, rice flat sedge (Cyperus iria); settings: 320 g/ha
Summary of the method: (§4)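 Plants were sown in alluvial soil held under 0.1–0.5 cm standing water and grown 14 days in a greenhouse at 25–30 °C. An emulsifiable formulation, water-diluted to the set dose, was then sprayed onto the foliage, and effects were scored three weeks later using previously defined criteria.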

wild oat [13] = assay: Test Example 4: herbicidal effect by soil treatment (Table 19, symbol I); format: in vivo, wild oat (Avena fatua); settings: amount of applied herbicide 320 g/ha
Summary of the method: as §3

green foxtail [14] = assay: Test Example 4: herbicidal effect by soil treatment (Table 19, symbol G); format: in vivo, green foxtail (Setaria viridis); settings: amount of applied herbicide 320 g/ha
Summary of the method: as §3

velvetleaf [15] = assay: Test Example 4: herbicidal effect by soil treatment (Table 19, symbol M); format: in vivo, velvetleaf (Abutilon theophrasti); settings: amount of applied herbicide 320 g/ha
Summary of the method: as §3

false cleavers [16] = assay: Test Example 4: herbicidal effect by soil treatment (Table 19, symbol Q); format: in vivo, false cleavers (Galium spurium); settings: amount of applied herbicide 320 g/ha
Summary of the method: as §3

barnyard grass [17] = assay: Test Example 5: herbicidal effect by foliage application, plastic box (Table 20, symbol H); format: in vivo, barnyard grass (Echinochloa crus-galli); settings: foliage application, 320 g/ha, three weeks after application
Summary of the method: as §1

Chinese sprangletop = assay: Test Example 3: herbicidal effect by foliage application, Wagner pot (Table 18, symbol D); format: in vivo, chinese sprangletop (Leptochloa chinensis); settings: 320 g/ha
Summary of the method: as §4

blackgrass [18] = assay: Test Example 4: herbicidal effect by soil treatment (Table 19, symbol J); format: in vivo, blackgrass (Alopecurus myosuroides); settings: amount of applied herbicide 320 g/ha
Summary of the method: as §3

lambsquarters [19] = assay: Test Example 5: herbicidal effect by foliage application, plastic box (Table 20, symbol O); format: in vivo, lambsquarters (Chenopodium album); settings: foliage application, 320 g/ha, three weeks after application
Summary of the method: as §1

false cleavers [20] = assay: Test Example 5: herbicidal effect by foliage application, plastic box (Table 20, symbol Q); format: in vivo, false cleavers (Galium spurium); settings: foliage application, 320 g/ha, three weeks after application
Summary of the method: as §1

windgrass [21] = assay: Test Example 5: herbicidal effect by foliage application, plastic box (Table 20, symbol L); format: in vivo, windgrass (Apera spica-venti); settings: foliage application, 320 g/ha, three weeks after application
Summary of the method: as §1

barnyard grass [22] = assay: Test Example 3: herbicidal effect by foliage application, Wagner pot (Table 18, symbol H); format: in vivo, barnyard grass (Echinochloa crus-galli); settings: 320 g/ha
Summary of the method: as §4

Japanese bulrush = assay: Test Example 1: herbicidal activity, application before weed generation under submerged conditions (Table 16, symbol B); format: in vivo, Japanese bulrush (Schoenoplectus juncoides); settings: 320 g/ha applied herbicide
Summary of the method: as §2

Italian ryegrass [23] = assay: Test Example 4: herbicidal effect by soil treatment (Table 19, symbol K); format: in vivo, Italian ryegrass (Lolium multiflorum); settings: amount of applied herbicide 320 g/ha
Summary of the method: as §3

barnyard grass [24] = assay: Test Example 4: herbicidal effect by soil treatment (Table 19, symbol H); format: in vivo, barnyard grass (Echinochloa crus-galli); settings: amount of applied herbicide 320 g/ha
Summary of the method: as §3

Italian ryegrass [25] = assay: Test Example 5: herbicidal effect by foliage application, plastic box (Table 20, symbol K); format: in vivo, Italian ryegrass (Lolium multiflorum); settings: foliage application, 320 g/ha, three weeks after application
Summary of the method: as §1

chickweed [26] = assay: Test Example 4: herbicidal effect by soil treatment (Table 19, symbol P); format: in vivo, common chickweed (Stellaria media); settings: amount of applied herbicide 320 g/ha
Summary of the method: as §3

redroot pigweed [27] = assay: Test Example 4: herbicidal effect by soil treatment (Table 19, symbol N); format: in vivo, redroot pigweed (Amaranthus retroflexus); settings: amount of applied herbicide 320 g/ha
Summary of the method: as §3

Row | Structure (SMILES) | herbicidal effect grade, M: velvetleaf (velvetleaf [1]) | herbicidal effect grade, J: blackgrass (blackgrass [2]) | Herbicidal effect on A: late watergrass (grade 0-5) (late watergrass) | herbicidal effect rating, F: southern crabgrass (southern crabgrass [3]) | herbicidal effect grade, I: wild oat (wild oat [4]) | herbicidal effect grade, N: redroot pigweed (redroot pigweed [5]) | herbicidal effect rating, R: persian speedwell (persian speedwell [6]) | herbicidal effect grade, G: green foxtail (green foxtail [7]) | Herbicidal effect on C: oval-leafed pondweed (grade 0-5) (oval-leafed pondweed) | herbicidal effect rating, O: lambsquarters (lambsquarters [8]) | herbicidal effect grade, P: chickweed (chickweed [9]) | herbicidal effect rating, L: windgrass (windgrass [10]) | herbicidal effect grade, R: persian speedwell (persian speedwell [11]) | herbicidal effect grade, F: southern crabgrass (southern crabgrass [12]) | herbicidal effect on E (rice flat sedge), rating 0-5 (rice flat sedge) | herbicidal effect rating, I: wild oat (wild oat [13]) | herbicidal effect rating, G: green foxtail (green foxtail [14]) | herbicidal effect rating, M: velvetleaf (velvetleaf [15]) | herbicidal effect rating, Q: false cleavers (false cleavers [16]) | herbicidal effect grade, H: barnyard grass (barnyard grass [17]) | also measured
1 | CCCCCCOc1ccc(-c2sc3ccccc3c2-c2c(O)c(C)nn(C)c2=O)cc1 [1-028] | 3 (Herbicidal rate of 40% or more and less than 70%) | 0 (Herbicidal rate of 5% or less (almost no effect)) | 1 (Herbicidal rate of 5% or more and less than 20%) | 0 (Herbicidal rate of 5% or less (almost no effect)) | 3 (Herbicidal rate of 40% or more and less than 70%) | 5 (Herbicidal rate of 90% or more (almost completely withered)) | 0 (Herbicidal rate of 5% or less (almost no effect)) | 4 (Herbicidal rate of 70% or more and less than 90%) | 0 (Herbicidal rate of 5% or less (almost no effect)) | 0 (Herbicidal rate of 5% or less (almost no effect)) | 5 (Herbicidal rate of 90% or more (almost completely withered)) | 0 (Herbicidal rate of 5% or less (almost no effect)) | 3 (Herbicidal rate of 40% or more and less than 70%) | 0 (Herbicidal rate of 5% or less (almost no effect)) | 4 (Herbicidal rate of 70% or more and less than 90%) | 0 (Herbicidal rate of 5% or less (almost no effect)) | 0 (Herbicidal rate of 5% or less (almost no effect)) | 0 (Herbicidal rate of 5% or less (almost no effect)) | 0 (Herbicidal rate of 5% or less (almost no effect)) | 0 (Herbicidal rate of 5% or less (almost no effect)) | herbicidal effect on D (Chinese sprangletop), rating 0-5 (Chinese sprangletop): 0 (Herbicidal rate of 5% or less (almost no effect)); herbicidal effect rating, J: blackgrass (blackgrass [18]): 0 (Herbicidal rate of 5% or less (almost no effect)); herbicidal effect grade, O: lambsquarters (lambsquarters [19]): 3 (Herbicidal rate of 40% or more and less than 70%); herbicidal effect grade, Q: false cleavers (false cleavers [20]): 4 (Herbicidal rate of 70% or more and less than 90%); herbicidal effect grade, L: windgrass (windgrass [21]): 3 (Herbicidal rate of 40% or more and less than 70%); herbicidal effect on H (barnyard grass), rating 0-5 (barnyard grass [22]): 3 (Herbicidal rate of 40% or more and less than 70%); Herbicidal effect on B: Japanese bulrush (grade 0-5) (Japanese bulrush): 2 (Herbicidal rate of 20% or more and less than 40%); herbicidal effect rating, K: Italian ryegrass (Italian ryegrass [23]): 0 (Herbicidal rate of 5% or less (almost no effect)); herbicidal effect rating, H: barnyard grass (barnyard grass [24]): 0 (Herbicidal rate of 5% or less (almost no effect)); herbicidal effect grade, K: Italian ryegrass (Italian ryegrass [25]): 2 (Herbicidal rate of 20% or more and less than 40%); herbicidal effect rating, P: chickweed (chickweed [26]): 0 (Herbicidal rate of 5% or less (almost no effect)); herbicidal effect rating, N: redroot pigweed (redroot pigweed [27]): 2 (Herbicidal rate of 20% or more and less than 40%)
2 | Cc1nn(C)c(=O)c(-c2c(-c3ccccc3OC(C)C)sc3ccccc23)c1O [1-017] | 4 (Herbicidal rate of 70% or more and less than 90%) | 4 (Herbicidal rate of 70% or more and less than 90%) | 3 (Herbicidal rate of 40% or more and less than 70%) | 0 (Herbicidal rate of 5% or less (almost no effect)) | 4 (Herbicidal rate of 70% or more and less than 90%) | 4 (Herbicidal rate of 70% or more and less than 90%) | 4 (Herbicidal rate of 70% or more and less than 90%) | 4 (Herbicidal rate of 70% or more and less than 90%) | 3 (Herbicidal rate of 40% or more and less than 70%) | 0 (Herbicidal rate of 5% or less (almost no effect)) | 5 (Herbicidal rate of 90% or more (almost completely withered)) | 0 (Herbicidal rate of 5% or less (almost no effect)) | 5 (Herbicidal rate of 90% or more (almost completely withered)) | 3 (Herbicidal rate of 40% or more and less than 70%) | 3 (Herbicidal rate of 40% or more and less than 70%) | 1 (Herbicidal rate of 5% or more and less than 20%) | 0 (Herbicidal rate of 5% or less (almost no effect)) | 0 (Herbicidal rate of 5% or less (almost no effect)) | 0 (Herbicidal rate of 5% or less (almost no effect)) | 4 (Herbicidal rate of 70% or more and less than 90%) | herbicidal effect on D (Chinese sprangletop), rating 0-5 (Chinese sprangletop): 0 (Herbicidal rate of 5% or less (almost no effect)); herbicidal effect rating, J: blackgrass (blackgrass [18]): 2 (Herbicidal rate of 20% or more and less than 40%); herbicidal effect grade, O: lambsquarters (lambsquarters [19]): 3 (Herbicidal rate of 40% or more and less than 70%); herbicidal effect grade, Q: false cleavers (false cleavers [20]): 5 (Herbicidal rate of 90% or more (almost completely withered)); herbicidal effect grade, L: windgrass (windgrass [21]): 4 (Herbicidal rate of 70% or more and less than 90%); herbicidal effect on H (barnyard grass), rating 0-5 (barnyard grass [22]): 5 (Herbicidal rate of 90% or more (almost completely withered)); Herbicidal effect on B: Japanese bulrush (grade 0-5) (Japanese bulrush): 3 (Herbicidal rate of 40% or more and less than 70%); herbicidal effect rating, K: Italian ryegrass (Italian ryegrass [23]): 0 (Herbicidal rate of 5% or less (almost no effect)); herbicidal effect rating, H: barnyard grass (barnyard grass [24]): 0 (Herbicidal rate of 5% or less (almost no effect)); herbicidal effect grade, K: Italian ryegrass (Italian ryegrass [25]): 2 (Herbicidal rate of 20% or more and less than 40%); herbicidal effect rating, P: chickweed (chickweed [26]): 4 (Herbicidal rate of 70% or more and less than 90%); herbicidal effect rating, N: redroot pigweed (redroot pigweed [27]): 0 (Herbicidal rate of 5% or less (almost no effect))
